Assay results from patent US11065244B2, “Methods of use of tetrahydroberberine (THB)” (DIGNITY HEALTH, priority 2010, dated 2021).

Key:
Kir6.2SUR1 KATP channels = target: T1, Kir6.2SUR1 KATP channels (Homo sapiens, UniProt Q09428+Q14654); assay: Patch-clamp cell attached single-channel recording of transfected Kir6.2SUR1 channels in HEK-293 cells; type: cell-based; conditions: 100 μM; control as 1; THB 6 patches, Ipt 8 patches
T1 construct: expressed in transfected cells; host or cells: HEK-293
T1 sequence (Q14654 whole entry): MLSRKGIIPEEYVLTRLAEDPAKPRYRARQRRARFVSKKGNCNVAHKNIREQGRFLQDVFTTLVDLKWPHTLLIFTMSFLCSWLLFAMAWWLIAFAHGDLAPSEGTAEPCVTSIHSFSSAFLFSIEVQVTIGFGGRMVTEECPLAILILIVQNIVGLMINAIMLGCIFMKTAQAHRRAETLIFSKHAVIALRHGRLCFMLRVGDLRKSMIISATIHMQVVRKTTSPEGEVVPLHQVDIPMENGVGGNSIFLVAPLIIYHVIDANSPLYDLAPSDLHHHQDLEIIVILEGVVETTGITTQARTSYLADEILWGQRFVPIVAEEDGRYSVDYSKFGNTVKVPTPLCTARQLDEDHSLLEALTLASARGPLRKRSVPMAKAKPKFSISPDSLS
T1 sequence (Q09428 whole entry): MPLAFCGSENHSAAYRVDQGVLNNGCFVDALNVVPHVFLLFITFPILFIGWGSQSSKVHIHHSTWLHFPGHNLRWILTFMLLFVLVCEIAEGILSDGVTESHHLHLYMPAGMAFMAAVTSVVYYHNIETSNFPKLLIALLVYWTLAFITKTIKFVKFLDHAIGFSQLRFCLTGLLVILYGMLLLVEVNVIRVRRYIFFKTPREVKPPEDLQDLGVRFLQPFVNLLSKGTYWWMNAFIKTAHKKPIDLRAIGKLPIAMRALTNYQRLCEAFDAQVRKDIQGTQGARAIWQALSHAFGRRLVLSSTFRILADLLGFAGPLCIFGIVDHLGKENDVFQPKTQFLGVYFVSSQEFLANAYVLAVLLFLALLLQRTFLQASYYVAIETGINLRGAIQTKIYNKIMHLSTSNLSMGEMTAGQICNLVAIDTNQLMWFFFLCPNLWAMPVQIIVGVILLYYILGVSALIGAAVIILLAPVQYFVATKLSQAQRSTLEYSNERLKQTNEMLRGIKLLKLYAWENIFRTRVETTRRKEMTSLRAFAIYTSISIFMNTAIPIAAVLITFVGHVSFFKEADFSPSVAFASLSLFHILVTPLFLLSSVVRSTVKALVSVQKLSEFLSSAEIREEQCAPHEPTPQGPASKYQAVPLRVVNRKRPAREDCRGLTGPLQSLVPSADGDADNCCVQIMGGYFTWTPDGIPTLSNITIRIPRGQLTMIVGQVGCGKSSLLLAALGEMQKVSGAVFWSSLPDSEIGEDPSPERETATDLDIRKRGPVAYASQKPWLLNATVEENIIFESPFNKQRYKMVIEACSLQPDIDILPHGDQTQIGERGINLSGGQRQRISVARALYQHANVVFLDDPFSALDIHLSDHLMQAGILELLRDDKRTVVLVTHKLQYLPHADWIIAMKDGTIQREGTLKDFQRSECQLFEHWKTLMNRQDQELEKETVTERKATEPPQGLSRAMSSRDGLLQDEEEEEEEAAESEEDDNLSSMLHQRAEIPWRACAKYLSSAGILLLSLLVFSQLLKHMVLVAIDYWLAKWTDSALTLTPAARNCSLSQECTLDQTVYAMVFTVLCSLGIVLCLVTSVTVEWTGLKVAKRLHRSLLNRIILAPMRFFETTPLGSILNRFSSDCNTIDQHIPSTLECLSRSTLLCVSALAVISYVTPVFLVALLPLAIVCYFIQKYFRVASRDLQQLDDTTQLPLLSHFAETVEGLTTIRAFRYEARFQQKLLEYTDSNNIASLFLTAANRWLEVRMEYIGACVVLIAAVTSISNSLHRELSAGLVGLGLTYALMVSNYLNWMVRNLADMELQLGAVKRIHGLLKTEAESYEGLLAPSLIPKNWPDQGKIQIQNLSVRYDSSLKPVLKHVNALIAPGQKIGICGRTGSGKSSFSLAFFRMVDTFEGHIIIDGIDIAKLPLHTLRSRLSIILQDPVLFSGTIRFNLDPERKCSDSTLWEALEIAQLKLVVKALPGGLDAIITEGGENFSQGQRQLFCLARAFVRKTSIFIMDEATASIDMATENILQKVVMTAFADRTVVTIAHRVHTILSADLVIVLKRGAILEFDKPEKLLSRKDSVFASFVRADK
Experimental: In β-cells, the dominant subtype of KATP is the Kir 6.2SUR1 subtype, as earlier described. Cells transiently transfected with the KATP Kir 6.2SUR1 channel subtype were evaluated for membrane potential and action potential firing using cell-attached recording in the presence or absence of 100 μm THB (FIG. 8A).
To further determine the effects of THB and Ipt on pancreatic β-cell-type KATP channels, the inventor examined the effects of THB or Ipt on the transfected Kir6.2SUR1 KATP channels in HEK-293 cells.

[1] = target: T2, pancreatic β-cell KATP channels (Rattus norvegicus, UniProt P70673+Q09429); assay: Whole-cell KATP currents induced by ramp pulses in rat pancreatic β-cells; type: cell-based; conditions: 100 μM bath application; external glucose 5.5 mM; ramp −90 to −50 mV
T2 construct: Single Channel Currents of KATP Channels in Rat Pancreatic β-Cells; from tissue; host or cells: rat pancreatic β-cells
T2 sequence (P70673 whole entry): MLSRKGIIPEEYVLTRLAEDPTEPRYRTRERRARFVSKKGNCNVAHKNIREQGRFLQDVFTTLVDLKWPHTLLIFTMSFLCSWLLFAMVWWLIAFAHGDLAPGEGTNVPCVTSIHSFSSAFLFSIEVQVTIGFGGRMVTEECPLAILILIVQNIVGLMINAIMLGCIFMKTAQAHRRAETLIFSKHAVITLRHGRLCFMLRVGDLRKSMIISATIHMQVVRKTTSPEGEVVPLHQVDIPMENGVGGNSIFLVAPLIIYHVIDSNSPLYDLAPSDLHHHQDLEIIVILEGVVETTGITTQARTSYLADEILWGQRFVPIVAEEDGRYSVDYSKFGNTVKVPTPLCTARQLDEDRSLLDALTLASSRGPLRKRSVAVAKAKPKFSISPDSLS
T2 sequence (Q09429 whole entry): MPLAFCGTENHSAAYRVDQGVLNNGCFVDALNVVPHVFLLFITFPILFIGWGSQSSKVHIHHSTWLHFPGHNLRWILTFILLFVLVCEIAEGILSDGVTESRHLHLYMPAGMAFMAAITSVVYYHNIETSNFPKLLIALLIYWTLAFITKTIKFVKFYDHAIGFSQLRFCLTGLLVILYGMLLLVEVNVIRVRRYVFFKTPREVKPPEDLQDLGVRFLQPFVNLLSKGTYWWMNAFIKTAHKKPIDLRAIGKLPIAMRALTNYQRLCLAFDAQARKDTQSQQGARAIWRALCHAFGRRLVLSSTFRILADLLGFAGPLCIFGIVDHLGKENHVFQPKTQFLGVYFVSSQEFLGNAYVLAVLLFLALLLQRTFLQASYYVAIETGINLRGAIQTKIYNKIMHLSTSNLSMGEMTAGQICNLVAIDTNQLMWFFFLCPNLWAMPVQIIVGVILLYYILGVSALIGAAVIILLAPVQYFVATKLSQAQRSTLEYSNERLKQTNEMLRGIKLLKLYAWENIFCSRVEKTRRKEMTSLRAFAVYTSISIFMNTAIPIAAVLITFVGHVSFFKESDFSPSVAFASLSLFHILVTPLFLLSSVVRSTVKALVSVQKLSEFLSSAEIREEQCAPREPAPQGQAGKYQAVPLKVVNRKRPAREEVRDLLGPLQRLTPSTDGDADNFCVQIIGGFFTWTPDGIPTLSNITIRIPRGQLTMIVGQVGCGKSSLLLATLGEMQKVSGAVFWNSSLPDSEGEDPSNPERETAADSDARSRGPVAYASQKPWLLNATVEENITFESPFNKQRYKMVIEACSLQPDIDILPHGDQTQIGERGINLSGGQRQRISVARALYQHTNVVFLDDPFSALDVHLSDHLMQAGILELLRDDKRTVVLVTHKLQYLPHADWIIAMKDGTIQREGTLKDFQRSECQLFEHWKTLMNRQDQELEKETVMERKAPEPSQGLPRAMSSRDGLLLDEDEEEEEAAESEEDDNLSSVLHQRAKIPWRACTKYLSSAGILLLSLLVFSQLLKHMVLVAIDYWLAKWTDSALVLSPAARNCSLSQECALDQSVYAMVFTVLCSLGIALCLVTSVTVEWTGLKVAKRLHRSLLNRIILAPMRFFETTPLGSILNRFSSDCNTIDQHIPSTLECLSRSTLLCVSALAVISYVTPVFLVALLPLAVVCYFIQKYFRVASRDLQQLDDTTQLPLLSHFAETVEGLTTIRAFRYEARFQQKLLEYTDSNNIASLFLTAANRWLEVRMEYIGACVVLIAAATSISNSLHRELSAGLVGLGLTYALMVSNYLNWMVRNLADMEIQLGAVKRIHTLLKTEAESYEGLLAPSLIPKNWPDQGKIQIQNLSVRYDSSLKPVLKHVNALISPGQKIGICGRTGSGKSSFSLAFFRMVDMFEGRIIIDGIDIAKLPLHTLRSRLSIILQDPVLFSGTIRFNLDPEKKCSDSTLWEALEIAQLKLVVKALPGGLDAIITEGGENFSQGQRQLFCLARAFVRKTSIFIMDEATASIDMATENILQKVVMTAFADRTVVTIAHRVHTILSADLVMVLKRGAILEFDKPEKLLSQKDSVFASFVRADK
Experimental: To determine whether or not THB and Ipt can block pancreatic β-cell KATP channels, whole-cell currents induced by repetitive ramp pulses from −90 to −50 mV (at 0.2 Hz) were recorded in voltage-clamp mode (external glucose=5.5 mM).

[2] = target: T2, pancreatic β-cell KATP channels; assay: Inside-out patch single channel recording in rat pancreatic β-cells, ATP free solution; type: cell-based; conditions: bath-applied
Kir6.2/SUR1 = target: T3, Kir6.2/SUR1 (Homo sapiens, UniProt Q09428+Q14654); assay: Whole-cell voltage-clamp currents of KATP channel subtypes, pancreatic type; type: cell-based; conditions: 100 μM perfused for 30 sec; currents at −100 mV; n=4
T3 construct: expressed in transfected cells
T3 sequence (Q14654 whole entry, the tested form may be a part): as the sequence (Q14654 whole entry) above
T3 sequence (Q09428 whole entry, the tested form may be a part): as the sequence (Q09428 whole entry) above
Experimental: (§1) Using whole-cell recordings in voltage-clamp mode, Command pulse protocol was set by the series test pulses with 100 ms duration that were applied between −100 and +50 mV in 10 mV steps from a holding potential of 0 mV (Top traces in FIG. 11, plots A-C). Representative effects of Ipt (100 μM perfused for 30 sec) on whole-cell current traces recorded from a cell expressed Kir6.2/SUR1 (A), Kir6.2/SUR2A (B) or Kir6.1/SUR2B (C). FIG. 11, plot D summarizes data for currents measured at −100 mV from A-C. Values are means±S.E.M. (n=4). *P<0.05, **P<0.01 vs. control.

Kir6.2/SUR2A = target: T4, Kir6.2/SUR2A (Homo sapiens, UniProt O60706+Q14654); assay: Whole-cell voltage-clamp currents of KATP channel subtypes, cardiac type; type: cell-based; conditions: 100 μM perfused for 30 sec; currents at −100 mV; n=4
T4 construct: expressed in transfected cells
Experimental: as §1

Kir6.1/SUR2B = target: T5, Kir6.1/SUR2B (Homo sapiens, UniProt O60706+Q15842); assay: Whole-cell voltage-clamp currents of KATP channel subtypes, vesicle type; type: cell-based; conditions: 100 μM perfused for 30 sec; currents at −100 mV; n=4
T5 construct: expressed in transfected cells
Experimental: as §1

rat pancreatic islets = assay: Insulin release from rat pancreatic islets; type: cell-based; conditions: 100 μM; 5.5 mM glucose external; from 22.5±1.2
Experimental: With 5.5 mM glucose in the external solution, basal insulin secretion was measured. […] Bath application of 100 μM THB increased insulin secretion from 22.5±1.2 to 39.4±1.5 pg/islet/min (FIG. 5; P<0.01; 6 cells) and 100 μM Ipt increased insulin secretion from 22.5±1.2 to 34.5±1.8 pg/islet/min (FIG. 11; P<0.05; 7 cells).

[3] = target: vascular KATP channels (Kir6.1SRU2B) (Homo sapiens, UniProt O60706+Q15842); conditions: relevant low concentration; cited from earlier work
[4] = test system: cardiac KATP channels (Kir6.1SUR2A); conditions: relevant low concentration; cited from earlier work
[5] = target: neuronal type and pancreatic type of KATP channels (Kir6.2SUR1) (Homo sapiens, UniProt Q09428+Q14654); conditions: relatively high concentrations; cited from earlier work
Sequence of neuronal type and pancreatic type of KATP channels (Kir6.2SUR1) (Q14654 whole entry): as the sequence (Q14654 whole entry) above
Sequence of neuronal type and pancreatic type of KATP channels (Kir6.2SUR1) (Q09428 whole entry): as the sequence (Q09428 whole entry) above

SNc DA neurons = assay: Perforated patch current-clamp recording of membrane potential and firing of dissociated SNc DA neurons, substance applied alone; type: cell-based, rat
Experimental: (§2) The protocol for preparation of single neurons from the rat SNc was approved by the Institutional Animal Care and Use Committee of the Barrow Neurological Institute. Single DA neurons were acutely dissociated from the SNc of 2-3-week-old Wistar rats following the protocol as previously described. Briefly, rats were anesthetized with isoflurane, and brain tissue was rapidly removed and immersed in cold (2-4° C.) dissection solution which contained: 136.7 mM NaCl, 5 mM KCl, 0.1 mM Na2HPO4, 0.2 mM KH2PO4, 9.84 mM HEPES, 16.6 mM D-glucose, 21.9 mM sucrose, pH 7.3, 330 mOsm, oxygenated with 100% O2 [8]. Three 400-μm coronal slices containing the SNc were cut using a vibrotome (Vibroslice 725M, WPI, Sarasota, Fla.). After cutting, slices were continuously bubbled with 95% O2-5% CO2 at room temperature (22±1° C.) for at least one hour in artificial cerebrospinal fluid (ACSF), which contained: 124 mM NaCl, 5 mM KCl, 24 mM NaHCO3, 1.3 mM MgSO4, 1.2 mM KH2PO4, 2.4 mM CaCl2, and 10 mM glucose, pH 7.4. Thereafter, slices were treated with pronase (1 mg per 6 ml) at 31° C. for 30 minutes in ACSF. The SNc was identified in a coronal slice using a stereo microscope with reference to the rat brain atlas, and was micro-punched out from slices using a well-polished needle. One punched piece was then transferred to a 35-mm culture dish filled with well-oxygenated standard extracellular solution, which contained: 150 mM NaCl, 5 mM KCl, 1 mM MgCl2, 2 mM CaCl2, 10 mM glucose 10, and 10 mM HEPES, pH 7.4 (with Tris-base). The punched piece was then dissociated mechanically using a fire-polished micro-Pasteur pipette under an inverted microscope (Olympus IX-70, Lake Success, N.Y.). The separated cells adhered to the bottom of the culture dish within 30 minutes. In the present study, we used only DA neurons that maintained their original morphological features of polygonal, large or medium somata with 2-4 thick primary dendritic processes were used.
Perforated patch whole-cell recording techniques were employed as previously described. Pipettes (3-5 MΩ) used for perforated patch recording were filled with intracellular recording solution containing 140 mM potassium gluconate, 10 mM KCl, 5 mM MgCl2, and 10 mM HEPES, pH 7.2 (with Tris-OH). The amphotericin B was freshly prepared to 200-240 μg/ml from a 40 mg/ml in DMSO stock. The liquid junction potential was 14 mV calculated using Clamplex 9.2 (Axon Instruments, Foster City, Calif.) and corrections were made for junction potentials post-hoc. After tight seal (>2 GΩ) formation, it usually took about 5-20 min to convert to perforated patch mode, and an access resistance of 20-60 MΩ was accepted to start the experiments. Series resistance was not compensated in this study. The data were filtered at 2 kHz, acquired at 10 kHz and digitized on-line (Digidata 1322 series A/D board, Axon Instruments, Foster City, Calif.). […] Drug application was performed using a computer-controlled “U-tube” system as previously described. All experiments were performed at room temperature (22±1° C.). To enable identification of single, dissociated SNc neurons after a patch-clamp recording session, the recording pipette was filled with a fluorescent dye (lucifer yellow CH, Sigma Chemical Co., St. Louis, Mo., 1.0 mg/ml in the recording electrode) in some experiments. After conversion from the perforated patch to the conventional whole-cell recording mode, the dye was ejected into the cytoplasm by a pulse (200 ms, 0.5 Hz) of hyperpolarizing current (1.0 nA) for 3 min. Labeled cells were visualized using epifluorescence microscopy. […]

[6] = test system: D2 receptor and dopamine-opened K+ channels; assay: Dopamine-induced membrane potential hyperpolarization in dissociated SNc DA neurons; type: cell-based, rat
Experimental: All experiments were performed at room temperature (22±1° C.).

[7] = target: T6, KATP channels in SNc DA neurons (Rattus norvegicus, UniProt P70673+Q09429); assay: Perforated patch current-clamp recording of rotenone-opened KATP channels in dissociated SNc DA neurons; type: cell-based; conditions: for altered membrane potential (depolarization) on rotenone-opened KATP channels, analog comparison: 100 μM, 6 neurons, FIG. 4B; for altered membrane potential in the presence of rotenone: FIG. 5C
T6 construct: functional KATP channels natively expressed on midbrain dopamine neurons; from tissue; host or cells: acutely dissociated dopaminergic neurons of rat substantia nigra pars compacta
T6 sequence (P70673 whole entry): as the sequence (P70673 whole entry) above
T6 sequence (Q09429 whole entry): as the sequence (Q09429 whole entry) above
Experimental: as §2
Perforated patch whole-cell recording techniques were employed as previously described. Pipettes (3-5 MΩ) used for perforated patch recording were filled with intracellular recording solution containing 140 mM potassium gluconate, 10 mM KCl, 5 mM MgCl2, and 10 mM HEPES, pH 7.2 (with Tris-OH). The amphotericin B was freshly prepared to 200-240 μg/ml from a 40 mg/ml in DMSO stock. The liquid junction potential was 14 mV calculated using Clamplex 9.2 (Axon Instruments, Foster City, Calif.) and corrections were made for junction potentials post-hoc. After tight seal (>2 GΩ) formation, it usually took about 5-20 min to convert to perforated patch mode, and an access resistance of 20-60 MΩ was accepted to start the experiments. Series resistance was not compensated in this study. The data were filtered at 2 kHz, acquired at 10 kHz and digitized on-line (Digidata 1322 series A/D board, Axon Instruments, Foster City, Calif.). […] Drug application was performed using a computer-controlled “U-tube” system as previously described. All experiments were performed at room temperature (22±1° C.). To enable identification of single, dissociated SNc neurons after a patch-clamp recording session, the recording pipette was filled with a fluorescent dye (lucifer yellow CH, Sigma Chemical Co., St. Louis, Mo., 1.0 mg/ml in the recording electrode) in some experiments. After conversion from the perforated patch to the conventional whole-cell recording mode, the dye was ejected into the cytoplasm by a pulse (200 ms, 0.5 Hz) of hyperpolarizing current (1.0 nA) for 3 min. Labeled cells were visualized using epifluorescence microscopy.
Under physiological conditions, the KATP channels are mostly closed. However, in the acutely-dissociated single neurons from rat SNc, there is background opening of KATP channels. […]

neuronal KATP channels = target: T7, neuronal KATP channels (Rattus norvegicus, UniProt P70673+Q09429); assay: Rotenone-induced outward current in voltage-clamp mode in the presence of the D2 receptor antagonist sulpiride; type: cell-based; conditions: VH −30 mV, 6 neurons
T7 construct: functional KATP channels natively expressed on midbrain dopamine neurons; from tissue; host or cells: acutely dissociated dopaminergic neurons of rat substantia nigra pars compacta
T7 sequence (P70673 whole entry): as the sequence (P70673 whole entry) above
T7 sequence (Q09429 whole entry): as the sequence (Q09429 whole entry) above
Experimental: as §2, with “In the present study, we used only DA neurons that maintained their original morphological features of polygonal, large or medium somata with 2-4 thick primary dendritic processes were used.” left out
Perforated patch whole-cell recording techniques were employed as previously described. […] The liquid junction potential was 14 mV calculated using Clamplex 9.2 (Axon Instruments, Foster City, Calif.) and corrections were made for junction potentials post-hoc. […]

CC(C)NC(C)(C)C(C)C [Ipt, Iptakalim]
normalized NPo value (Kir6.2SUR1 KATP channels): 0.50±0.02
effect on β-cell KATP channel-mediated whole-cell currents [1]: reduced these β-cell KATP channel-mediated currents
effect on single channel activities opened by ATP free solution [2]: inhibited these single channel activities
effect on whole-cell current of Kir6.2/SUR1 (Kir6.2/SUR1): blocks β-cell-type KATP channels
effect on whole-cell current of Kir6.2/SUR2A (Kir6.2/SUR2A): opens cardiovascular types of KATP channels
effect on whole-cell current of Kir6.1/SUR2B (Kir6.1/SUR2B): opens cardiovascular types of KATP channels
insulin secretion after bath application (rat pancreatic islets): 34.5±1.8 pg/islet/min
concentration at which Ipt mainly opens vascular KATP channels [3]: < 10 µM
concentration at which Ipt weakly opens cardiac KATP channels [4]: < 10 µM
concentration at which Ipt blocks neuronal type and pancreatic type of KATP channels [5]: > 30 µM

CC1=Nc2ccc(Cl)cc2S(=O)(=O)N1 [dizoxide]
effect of KATP channel opener on membrane potential (SNc DA neurons; 300 μM (FIG. 3B legend)): hyperpolarized membrane potential

NCCc1ccc(O)c(O)c1 [dopamine]
membrane potential hyperpolarization by dopamine ([6]; 10 μM dopamine bath-application, 10 neurons, p<0.01): 10.5±1.1 mV

COc1cc2c(cc1O)[C@@H]1Cc3ccc(O)c(OC)c3CN1CC2 [l-SPD, l-stepholidine]
altered membrane potential (depolarization) on rotenone-opened KATP channels, analog comparison [7]: 8.4±1.4 mV

COc1cc2c(cc1OC)[C@@H]1Cc3ccc(OC)c(OC)c3CN1CC2 [l-THP, l-tetrahydropalmatine]
altered membrane potential (depolarization) on rotenone-opened KATP channels, analog comparison [7]: 3.4±0.5 mV

C=C(C)[C@H]1Cc2c(ccc3c2O[C@@H]2COc4cc(OC)c(OC)cc4[C@@H]2C3=O)O1 [rotenone]
membrane potential after perfusion of rotenone (SNc DA neurons; 1 μM rotenone for 1-3 min, averaged resting membrane potential −46.1±0.9 mV, 30 neurons, p<0.001): −61.1±0.9 mV
rotenone-induced outward current amplitude (neuronal KATP channels; in the presence of sulpiride): 125.8±37.1 pA

CCN1CCCC1CNC(=O)c1cc(S(N)(=O)=O)ccc1OC (centres unmarked) [sulpiride]
effect of D2 receptor antagonist alone on resting membrane potential (SNc DA neurons; exposure alone, neuronal firing rate was increased): did not clearly alter resting membrane potential

CCCCNC(=O)NS(=O)(=O)c1ccc(C)cc1 [tolbutamide]
membrane potential after substance during persistent perfusion of rotenone ([7]; 1 μM rotenone, before: THB −61.7±1.3 (n=11), tolbutamide −61.6±1.2 (n=21), p<0.01): −52.5±1.1 mV
altered membrane potential in the presence of rotenone ([7]; 1 μM substance): 0.2±0.1 mV
altered membrane potential in the presence of rotenone ([7]; 10 μM substance): 4.4±0.3 mV
altered membrane potential in the presence of rotenone ([7]; 100 μM substance): 9.1±0.5 mV
Hill coefficient of concentration-effect relationship curve ([7]; membrane depolarization in the presence of rotenone): 2.1
IC50 ([7]; membrane depolarization in the presence of rotenone, read-out: IC50 of concentration-effect relationship curve (block of KATP channels)): 10.4 µM
membrane potential after exposure to substance alone (SNc DA neurons; 100 μM, before: THB −46.5±0.9 (n=7), tolbutamide −44.4±1.6 (n=5)): −44.1±1.8 mV
altered membrane potential on co-application with dopamine ([6]; difference THB vs tolbutamide p>0.05): 8.5±2.2 mV
rotenone-induced outward current amplitude after addition of substance (neuronal KATP channels; 100 mM substance as printed, sulpiride present, from 125.8±37.1 pA, p<0.01): 45.8±23.7 pA
